Laboratory results taken from ChEMBL document CHEMBL1201861, “Genomics of Drug Sensitity in Cancer screening data, Wellcome Trust Sanger Institute”.

Key:
Test in all cases: cells
COLO-800 = format: functional, cell-based, Homo sapiens; details: Homo sapiens, COLO-800;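 note: growth inhibition of COLO-800 cells, read out with a cell viability assay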
Description: SANGER: Inhibition of human COLO-800 cell growth in a cell viability assay.

COLO-829 = format: functional, cell-based, Homo sapiens; details: Homo sapiens, COLO-829
Description: SANGER: Inhibition of human COLO-829 cell growth in a cell viability assay.

Calu-6 = format: functional, cell-based, Homo sapiens; details: Homo sapiens, Calu-6;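 note: growth of human Calu-6 cells, read out by a cell viability assay, IC50 marking inhibition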
Description: SANGER: Inhibition of human Calu-6 cell growth in a cell viability assay.

D283 Med = format: functional, cell-based, Homo sapiens; details: Homo sapiens, D283 Med
Description: SANGER: Inhibition of human D-283MED cell growth in a cell viability assay.

D-392MG = format: functional, cell-based, Homo sapiens; details: Homo sapiens, D-392MG
DB = format: functional, cell-based, Homo sapiens; details: Homo sapiens, DB
Description: SANGER: Inhibition of human DB cell growth in a cell viability assay.

ES8 = format: functional, cell-based, Homo sapiens; details: Homo sapiens, ES8;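 note: growth inhibition of human ES8 cells, read out with a cell viability assay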
Description: SANGER: Inhibition of human ES8 cell growth in a cell viability assay.

EW-1 = format: functional, cell-based, Homo sapiens; details: Homo sapiens, EW-1
Description: SANGER: Inhibition of human EW-1 cell growth in a cell viability assay.

EW-11 = format: functional, cell-based, Homo sapiens; details: Homo sapiens, EW-11;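 note: growth inhibition of human EW-11 cells, measured with a cell viability assay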
Description: SANGER: Inhibition of human EW-11 cell growth in a cell viability assay.

EW-16 = format: functional, cell-based, Homo sapiens; details: Homo sapiens, EW-16;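 note: growth inhibition of human EW-16 cells, read out as cell viability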
Description: SANGER: Inhibition of human EW-16 cell growth in a cell viability assay.

EOL1 = format: functional, cell-based, Homo sapiens; details: Homo sapiens, EOL1;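 note: growth inhibition of EoL-1 cells, read out by a cell viability assay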
Description: SANGER: Inhibition of human EoL-1-cell cell growth in a cell viability assay.

GAK = format: functional, cell-based, Homo sapiens; details: Homo sapiens, GAK;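 note: cell growth inhibition read out by a cell viability assay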
Description: SANGER: Inhibition of human GAK cell growth in a cell viability assay.

HCC 2998 = format: functional, cell-based, Homo sapiens; details: Homo sapiens, HCC 2998;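 note: growth inhibition of human HCC2998 cells, measured with a cell viability read-out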
Description: SANGER: Inhibition of human HCC2998 cell growth in a cell viability assay.

HCE-4 = format: functional, cell-based, Homo sapiens; details: Homo sapiens, HCE-4;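 note: cell viability assay measuring inhibition of growth in the human HCE-4 cell line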
Description: SANGER: Inhibition of human HCE-4 cell growth in a cell viability assay.

HDLM-2 = format: functional, cell-based, Homo sapiens; details: Homo sapiens, HDLM-2;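 note: cell viability assay measuring suppression of HDLM-2 proliferation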
Description: SANGER: Inhibition of human HDLM-2 cell growth in a cell viability assay.

HH = format: functional, cell-based, Homo sapiens; details: Homo sapiens, HH
Description: SANGER: Inhibition of human HH cell growth in a cell viability assay.

HL-60 = format: functional, cell-based, Homo sapiens; details: Homo sapiens, HL-60;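 note: growth inhibition of human HL-60 cells, read out with a cell viability assay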
Description: SANGER: Inhibition of human HL-60 cell growth in a cell viability assay.

JAR = format: functional, cell-based, Homo sapiens; details: Homo sapiens, JAR;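 note: growth inhibition of human JAR cells determined with a cell viability assay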
Description: SANGER: Inhibition of human JAR cell growth in a cell viability assay.

KM-H2 = format: functional, cell-based, Homo sapiens; details: Homo sapiens, KM-H2;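 note: growth inhibition of KM-H2 cells, read out by a cell viability assay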
Description: SANGER: Inhibition of human KM-H2 cell growth in a cell viability assay.

KNS-42 = format: functional, cell-based, Homo sapiens; details: Homo sapiens, KNS-42;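 note: growth inhibition of KNS-42 cells, read out with a cell viability assay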
Description: SANGER: Inhibition of human KNS-42 cell growth in a cell viability assay.

KS-1 = format: functional, cell-based, Homo sapiens; details: Homo sapiens, KS-1;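 note: growth inhibition of KS-1 cells, read out with a cell viability assay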
Description: SANGER: Inhibition of human KS-1 cell growth in a cell viability assay.

KURAMOCHI = format: functional, cell-based, Homo sapiens; details: Homo sapiens, KURAMOCHI;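 note: growth inhibition of KURAMOCHI cells, read out with a cell viability assay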
Description: SANGER: Inhibition of human KURAMOCHI cell growth in a cell viability assay.

LAN-6 = format: functional, cell-based, Homo sapiens; details: Homo sapiens, LAN-6;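 note: growth inhibition of LAN-6 cells, determined with a cell viability assay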
Description: SANGER: Inhibition of human LAN-6 cell growth in a cell viability assay.

LB771-HNC = format: functional, cell-based, Homo sapiens; details: Homo sapiens, LB771-HNC;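 note: growth inhibition of LB771-HNC human cells, read out with a cell viability assay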
Description: SANGER: Inhibition of human LB771-HNC cell growth in a cell viability assay.

LOX IMVI = format: functional, cell-based, Homo sapiens; details: Homo sapiens, LOX IMVI
Description: SANGER: Inhibition of human LOXIMVI cell growth in a cell viability assay.

LS-123 = format: functional, cell-based, Homo sapiens; details: Homo sapiens, LS-123
Description: SANGER: Inhibition of human LS-123 cell growth in a cell viability assay.

ML-2 = format: functional, cell-based, Homo sapiens; details: Homo sapiens, ML-2;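 note: growth inhibition of ML-2 cells, measured with a cell viability readout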
Description: SANGER: Inhibition of human ML-2 cell growth in a cell viability assay.

MZ7-mel = format: functional, cell-based, Homo sapiens; details: Homo sapiens, MZ7-mel;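 note: growth inhibition of human MZ7-mel cells, measured by a cell viability assay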
Description: SANGER: Inhibition of human MZ7-mel cell growth in a cell viability assay.

NCI-H1299 = format: functional, cell-based, Homo sapiens; details: Homo sapiens, NCI-H1299;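 note: growth inhibition of human NCI-H1299 cells, read out by a cell viability assay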
Description: SANGER: Inhibition of human NCI-H1299 cell growth in a cell viability assay.

NCI-H1395 = format: functional, cell-based, Homo sapiens; details: Homo sapiens, NCI-H1395;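 note: cell viability assay read-out quantifying reduced proliferation of human NCI-H1395 cells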
Description: SANGER: Inhibition of human NCI-H1395 cell growth in a cell viability assay.

NCI-H720 = format: functional, cell-based, Homo sapiens; details: Homo sapiens, NCI-H720;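 note: growth inhibition of human NCI-H720 cells determined by a cell viability assay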
Description: SANGER: Inhibition of human NCI-H720 cell growth in a cell viability assay.

SHP77 = format: functional, cell-based, Homo sapiens, SHP-77; details: Homo sapiens, SHP77;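 note: growth inhibition of human SHP-77 cells measured by a cell viability assay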
Description: SANGER: Inhibition of human SHP-77 cell growth in a cell viability assay.

SW982 = format: functional, cell-based, Homo sapiens; details: Homo sapiens, SW982;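 note: growth inhibition of SW982 cells, read out with a cell viability assay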
Description: SANGER: Inhibition of human SW982 cell growth in a cell viability assay.

8-MG-BA = format: functional, cell-based, Homo sapiens; details: Homo sapiens, 8-MG-BA;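 note: growth inhibition of 8-MG-BA cells, read out with a cell viability assay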
Description: SANGER: Inhibition of human 8-MG-BA cell growth in a cell viability assay.

A253 cell line = format: functional, cell-based, Homo sapiens; details: Homo sapiens, A253;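 note: growth inhibition of A253 cells, read out with a cell viability assay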
Description: SANGER: Inhibition of human A253 cell growth in a cell viability assay.

A388 = format: functional, cell-based, Homo sapiens; details: Homo sapiens, A388;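 note: growth inhibition of human A388 cells, read out with a cell viability assay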
Description: SANGER: Inhibition of human A388 cell growth in a cell viability assay.

ALL-PO = format: functional, cell-based, Homo sapiens; details: Homo sapiens, ALL-PO;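 note: growth inhibition of ALL-PO cells, read out by a cell viability assay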
Description: SANGER: Inhibition of human ALL-PO cell growth in a cell viability assay.

BB30-HNC = format: functional, cell-based, Homo sapiens; details: Homo sapiens, BB30-HNC;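 note: growth inhibition of the cultured cell line, read out by a cell viability assay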
Description: SANGER: Inhibition of human BB30-HNC cell growth in a cell viability assay.

BV-173 = format: functional, cell-based, Homo sapiens; details: Homo sapiens, BV-173
Description: SANGER: Inhibition of human BV-173 cell growth in a cell viability assay.

TE-12 = format: functional, cell-based, Homo sapiens; details: Homo sapiens, TE-12;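 note: growth inhibition of TE-12 cells, read out by a cell viability assay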
Description: SANGER: Inhibition of human TE-12 cell growth in a cell viability assay.

TE-5 = format: functional, cell-based, Homo sapiens; details: Homo sapiens, TE-5;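 note: inhibition of cell growth, read out by a cell viability assay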
Description: SANGER: Inhibition of human TE-5 cell growth in a cell viability assay.

TE-8 = format: functional, cell-based, Homo sapiens; details: Homo sapiens, TE-8;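 note: growth inhibition of TE-8 cells, measured with a cell viability readout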
Description: SANGER: Inhibition of human TE-8 cell growth in a cell viability assay.

TE-9 = format: functional, cell-based, Homo sapiens; details: Homo sapiens, TE-9;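 note: cell growth inhibition, measured with a cell viability readout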
Description: SANGER: Inhibition of human TE-9 cell growth in a cell viability assay.

no-11 = format: functional, cell-based, Homo sapiens; details: Homo sapiens;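 note: growth inhibition of human NO-11 cells, read out with a cell viability assay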
Description: SANGER: Inhibition of human no-11 cell growth in a cell viability assay.

CGTH-W-1 = format: functional, cell-based, Homo sapiens; details: Homo sapiens, CGTH-W-1;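 note: growth inhibition of human CGTH-W-1 cells measured by cell viability assay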
Description: SANGER: Inhibition of human CGTH-W-1 cell growth in a cell viability assay.

COLO-320-HSR = format: functional, cell-based, Homo sapiens; details: Homo sapiens, COLO-320-HSR;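 note: growth inhibition of COLO-320-HSR cells, determined with a cell viability assay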
Description: SANGER: Inhibition of human COLO-320-HSR cell growth in a cell viability assay.

COLO-668 = format: functional, cell-based, Homo sapiens; details: Homo sapiens, COLO-668
Description: SANGER: Inhibition of human COLO-668 cell growth in a cell viability assay.

COLO-684 = format: functional, cell-based, Homo sapiens; details: Homo sapiens, COLO-684
Description: SANGER: Inhibition of human COLO-684 cell growth in a cell viability assay.

Work on `Cc1cc([N+](=O)[O-])ccc1NS(=O)(=O)c1cc(Cl)ccc1Cl` yielded an IC50 (COLO-800) of 8.91 µM, an IC50 (COLO-829) of 0.825 µM and an IC50 (Calu-6) of 0.831 µM. The IC50 (D283 Med) was 3.96 µM, the IC50 (D-392MG) was > 32 µM and the IC50 (DB) was 8.17 µM. For the same molecule, the IC50 (ES8) was 8.95 µM, the IC50 (EW-1) was 15.3 µM and the IC50 (EW-11) was > 32 µM. It also gave an IC50 (EW-16) of 4.59 µM, an IC50 (EOL1) of 4.95 µM and an IC50 (GAK) of 2.01 µM. It also gave an IC50 (HCC 2998) of 3.15 µM, an IC50 (HCE-4) of 5.45 µM and an IC50 (HDLM-2) of 6.71 µM. It also gave an IC50 (HH) of 15.2 µM, an IC50 (HL-60) of 3.79 µM and an IC50 (JAR) of 23 µM. It also gave an IC50 (KM-H2) of 14.9 µM, an IC50 (KNS-42) of 12.7 µM and an IC50 (KS-1) of 12.6 µM. For the same molecule, the IC50 (KURAMOCHI) was 1.33 µM, the IC50 (LAN-6) was 20.4 µM and the IC50 (LB771-HNC) was 2.24 µM. It also gave an IC50 (LOX IMVI) of 13.9 µM, an IC50 (LS-123) of 9.22 µM and an IC50 (ML-2) of 7.87 µM. The IC50 (MZ7-mel) was 3.39 µM, the IC50 (NCI-H1299) was 3.19 µM and the IC50 (NCI-H1395) was > 32 µM. For the same molecule, the IC50 (NCI-H720) was > 32 µM, the IC50 (SHP77) was 22.9 µM and the IC50 (SW982) was 9.22 µM. It also gave an IC50 (8-MG-BA) of 3.7 µM, an IC50 (A253 cell line) of 5.93 µM and an IC50 (A388) of 4.93 µM. For the same molecule, the IC50 (ALL-PO) was 2.34 µM, the IC50 (BB30-HNC) was 2.61 µM and the IC50 (BV-173) was > 32 µM. The IC50 (TE-12) was 2.94 µM, the IC50 (TE-5) was 6.73 µM and the IC50 (TE-8) was 5.76 µM. For the same molecule, the IC50 (TE-9) was 2.69 µM, the IC50 (no-11) was 6.74 µM and the IC50 (CGTH-W-1) was 11.9 µM. It also gave an IC50 (COLO-320-HSR) of 17.6 µM, an IC50 (COLO-668) of 4.48 µM and an IC50 (COLO-684) of 12.1 µM.
In the case of `Oc1ccc2ccccc2c1SSc1c(O)ccc2ccccc12`, the IC50 (COLO-800) is reported as > 32 µM, the IC50 (COLO-829) is reported as > 32 µM and the IC50 (Calu-6) is reported as > 32 µM. For the same molecule, the IC50 (D283 Med) was > 32 µM, the IC50 (D-392MG) was > 32 µM and the IC50 (DB) was 12.7 µM. The IC50 (ES8) was > 32 µM, the IC50 (EW-1) was 14.2 µM and the IC50 (EW-11) was > 32 µM. For the same molecule, the IC50 (EW-16) was 24.8 µM, the IC50 (EOL1) was > 32 µM and the IC50 (GAK) was > 32 µM. For the same molecule, the IC50 (HCC 2998) was > 32 µM, the IC50 (HCE-4) was > 32 µM and the IC50 (HDLM-2) was > 32 µM. The IC50 (HH) was 10.8 µM, the IC50 (HL-60) was 8.85 µM and the IC50 (JAR) was > 32 µM. For the same molecule, the IC50 (KM-H2) was > 32 µM, the IC50 (KNS-42) was > 32 µM and the IC50 (KS-1) was 6.89 µM. The IC50 (KURAMOCHI) was > 32 µM, the IC50 (LAN-6) was > 32 µM and the IC50 (LB771-HNC) was > 32 µM. The IC50 (LOX IMVI) was > 32 µM, the IC50 (LS-123) was 8.8 µM and the IC50 (ML-2) was 26.4 µM. The IC50 (MZ7-mel) was > 32 µM, the IC50 (NCI-H1299) was > 32 µM and the IC50 (NCI-H1395) was > 32 µM. For the same molecule, the IC50 (NCI-H720) was > 32 µM, the IC50 (SHP77) was > 32 µM and the IC50 (SW982) was > 32 µM. For the same molecule, the IC50 (8-MG-BA) was > 32 µM, the IC50 (A253 cell line) was > 32 µM and the IC50 (A388) was > 32 µM. For the same molecule, the IC50 (ALL-PO) was 13.9 µM, the IC50 (BB30-HNC) was > 32 µM and the IC50 (BV-173) was > 32 µM. The IC50 (TE-12) was > 32 µM, the IC50 (TE-5) was > 32 µM and the IC50 (TE-8) was > 32 µM. For the same molecule, the IC50 (TE-9) was > 32 µM, the IC50 (no-11) was > 32 µM and the IC50 (CGTH-W-1) was > 32 µM. The IC50 (COLO-320-HSR) was > 32 µM, the IC50 (COLO-668) was > 32 µM and the IC50 (COLO-684) was 20.3 µM.
